Experimental data: patent publication US20230143604A1, “QW DOSING OF GIP RECEPTOR AGONIST PEPTIDE COMPOUNDS AND USES THEREOF” (TAKEDA PHARMACEUTICAL COMPANY LIMITED, priority 2020, published 2023)
Starred links: 1 amine or outer side, 2 acyl side, 3 side chain; linkers in the order of their positions; H or OH if unused. Non-standard residues stand in square brackets, D forms with d. Residues, ends and D or L forms follow the SMILES beside them. Groups on a side chain read outwards from the residue. *: point of attachment. C20 diacid = O=C(O)CCCCCCCCCCCCCCCCCCC(=O)*; C18 diacid = O=C(O)CCCCCCCCCCCCCCCCC(=O)*; C17 diacid = O=C(O)CCCCCCCCCCCCCCCC(=O)*; γGlu = O=C(O)[C@H](CCC(=O)[*:2])N[*:1]; NMeY = CN[C@@H](Cc1ccc(O)cc1)C(=O)O; AEEA = NCCOCCOCC(=O)O; Aib = CC(C)(N)C(=O)O

Assay: Solubility in phosphate buffer pH 7.4
Summary of the method: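 3 mg of peptide treated with 100 μL portions of 200 mM phosphate buffer pH 7.4, sonicating/vortexing up to 1 min, with further buffer added until fully dissolved. Solubility then quantified by HPLC.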

[1] = pH 7.4, aqueous buffer, pH 7.4 Phosphate Buffer - Solubility, 200 mM Phosphate buffer pH 7.4
[2] = pH 7.4, solubility in phosphate buffer at pH 7.4, 200 mM phosphate buffer pH 7.4

SMILES	solubility [1]	solubility [2]
CC[C@H](C)[C@H](NC(=O)[C@H](Cc1ccccc1)NC(=O)[C@@H](NC(=O)CNC(=O)[C@H](CCC(=O)O)NC(=O)C(C)(C)NC(=O)[C@H](Cc1ccc(O)cc1)NC)[C@@H](C)O)C(=O)N[C@@H](CO)C(=O)N[C@@H](CC(=O)O)C(=O)N[C@@H](Cc1ccc(O)cc1)C(=O)N[C@@H](CO)C(=O)N[C@H](C(=O)NC(C)(C)C(=O)N[C@@H](CC(C)C)C(=O)N[C@@H](CC(=O)O)C(=O)N[C@@H](CCCNC(=N)N)C(=O)NC(C)(C)C(=O)N[C@@H](C)C(=O)N[C@@H](CCC(N)=O)C(=O)NC(C)(C)C(=O)N[C@@H](CCCCNC(=O)COCCOCCNC(=O)COCCOCCNC(=O)CC[C@H](NC(=O)CC[C@H](NC(=O)CCCCCCCCCCCCCCCC(=O)O)C(=O)O)C(=O)O)C(=O)N[C@@H](Cc1ccccc1)C(=O)N[C@H](C(=O)N[C@@H](CC(N)=O)C(=O)N[C@@H](Cc1c[nH]c2ccccc12)C(=O)N[C@@H](CC(C)C)C(=O)N[C@@H](CC(C)C)C(=O)N[C@@H](C)C(=O)N[C@@H](CCC(N)=O)C(=O)N[C@@H](CO)C(=O)N1CCC[C@H]1C(=O)N[C@@H](CO)C(=O)N[C@@H](CO)C(=O)NCC(=O)N[C@@H](C)C(=O)N1CCC[C@H]1C(=O)N1CCC[C@H]1C(=O)N1CCC[C@H]1C(=O)N[C@@H](CO)C(N)=O)C(C)C)[C@@H](C)CC [Compound 94] (H-[NMeY][Aib]EGTFISDYSI[Aib]LDR[Aib]AQ[Aib]K([AEEA-AEEA-γGlu-γGlu-C17 diacid])FVNWLLAQSPSSGAPPPS-NH2)	≥ 60 mg/mL	≥ 15 mg/mL
CC[C@H](C)[C@H](NC(=O)[C@H](CO)NC(=O)[C@H](Cc1ccc(O)cc1)NC(=O)[C@H](CC(=O)O)NC(=O)[C@H](CO)NC(=O)[C@@H](NC(=O)[C@H](Cc1ccccc1)NC(=O)[C@@H](NC(=O)CNC(=O)[C@H](CCC(=O)O)NC(=O)C(C)(C)NC(=O)[C@H](Cc1ccc(O)cc1)NC)[C@@H](C)O)[C@@H](C)CC)C(=O)N[C@@H](C)C(=O)N[C@@H](CC(C)C)C(=O)N[C@@H](CC(=O)O)C(=O)N[C@@H](CCCNC(=N)N)C(=O)NC(C)(C)C(=O)N[C@@H](C)C(=O)N[C@@H](CCC(N)=O)C(=O)NC(C)(C)C(=O)N[C@@H](CCCCNC(=O)COCCOCCNC(=O)COCCOCCNC(=O)CC[C@H](NC(=O)CC[C@H](NC(=O)CCCCCCCCCCCCCCCCC(=O)O)C(=O)O)C(=O)O)C(=O)N[C@@H](Cc1ccccc1)C(=O)N[C@H](C(=O)N[C@@H](CC(N)=O)C(=O)N[C@@H](Cc1c[nH]c2ccccc12)C(=O)N[C@@H](CC(C)C)C(=O)N[C@@H](CC(C)C)C(=O)N[C@@H](C)C(=O)N[C@@H](CCC(N)=O)C(=O)N[C@@H](CO)C(=O)N1CCC[C@H]1C(=O)N[C@@H](CO)C(=O)N[C@@H](CO)C(=O)NCC(=O)N[C@@H](C)C(=O)N1CCC[C@H]1C(=O)N1CCC[C@H]1C(=O)N1CCC[C@H]1C(=O)N[C@@H](CO)C(N)=O)C(C)C [Compound 97] (H-[NMeY][Aib]EGTFISDYSIALDR[Aib]AQ[Aib]K([AEEA-AEEA-γGlu-γGlu-C18 diacid])FVNWLLAQSPSSGAPPPS-NH2)	≥ 60 mg/mL	≥ 15 mg/mL
CC[C@H](C)[C@H](NC(=O)[C@H](CO)NC(=O)[C@H](Cc1ccc(O)cc1)NC(=O)[C@H](CC(=O)O)NC(=O)[C@H](CO)NC(=O)[C@@H](NC(=O)[C@H](Cc1ccccc1)NC(=O)[C@@H](NC(=O)CNC(=O)[C@H](CCC(=O)O)NC(=O)C(C)(C)NC(=O)[C@H](Cc1ccc(O)cc1)NC)[C@@H](C)O)[C@@H](C)CC)C(=O)N[C@@H](C)C(=O)N[C@@H](CC(C)C)C(=O)N[C@@H](CC(=O)O)C(=O)N[C@@H](CCCNC(=N)N)C(=O)NC(C)(C)C(=O)N[C@@H](CCCCNC(=O)COCCOCCNC(=O)COCCOCCNC(=O)CC[C@H](NC(=O)CC[C@H](NC(=O)CCCCCCCCCCCCCCCCCCC(=O)O)C(=O)O)C(=O)O)C(=O)N[C@@H](CCC(N)=O)C(=O)NC(C)(C)C(=O)N[C@@H](CC(N)=O)C(=O)N[C@@H](Cc1ccccc1)C(=O)N[C@H](C(=O)N[C@@H](CC(N)=O)C(=O)N[C@@H](Cc1c[nH]c2ccccc12)C(=O)N[C@@H](CC(C)C)C(=O)N[C@@H](CC(C)C)C(=O)N[C@@H](C)C(=O)N[C@@H](CCC(N)=O)C(=O)N[C@@H](CO)C(=O)N1CCC[C@H]1C(=O)N[C@@H](CO)C(=O)N[C@@H](CO)C(=O)NCC(=O)N[C@@H](C)C(=O)N1CCC[C@H]1C(=O)N1CCC[C@H]1C(=O)N1CCC[C@H]1C(=O)N[C@@H](CO)C(N)=O)C(C)C [Compound 99] (H-[NMeY][Aib]EGTFISDYSIALDR[Aib]K([AEEA-AEEA-γGlu-γGlu-C20 diacid])Q[Aib]NFVNWLLAQSPSSGAPPPS-NH2)	≥ 60 mg/mL	
CC[C@H](C)[C@H](NC(=O)[C@H](Cc1ccccc1)NC(=O)[C@@H](NC(=O)CNC(=O)[C@H](CCC(=O)O)NC(=O)C(C)(C)NC(=O)[C@H](Cc1ccc(O)cc1)NC)[C@@H](C)O)C(=O)N[C@@H](CO)C(=O)N[C@@H](CC(=O)O)C(=O)N[C@@H](Cc1ccc(O)cc1)C(=O)N[C@@H](CO)C(=O)N[C@H](C(=O)NC(C)(C)C(=O)N[C@@H](CC(C)C)C(=O)N[C@@H](CC(=O)O)C(=O)N[C@@H](CCCNC(=N)N)C(=O)NC(C)(C)C(=O)N[C@@H](CCCCNC(=O)COCCOCCNC(=O)COCCOCCNC(=O)CC[C@H](NC(=O)CC[C@H](NC(=O)CCCCCCCCCCCCCCCCC(=O)O)C(=O)O)C(=O)O)C(=O)N[C@@H](CCC(N)=O)C(=O)NC(C)(C)C(=O)N[C@@H](CC(N)=O)C(=O)N[C@@H](Cc1ccccc1)C(=O)N[C@H](C(=O)N[C@@H](CC(N)=O)C(=O)N[C@@H](Cc1c[nH]c2ccccc12)C(=O)N[C@@H](CC(C)C)C(=O)N[C@@H](CC(C)C)C(=O)N[C@@H](C)C(=O)N[C@@H](CCC(N)=O)C(=O)N[C@@H](CO)C(=O)N1CCC[C@H]1C(=O)N[C@@H](CO)C(=O)N[C@@H](CO)C(=O)NCC(=O)N[C@@H](C)C(=O)N1CCC[C@H]1C(=O)N1CCC[C@H]1C(=O)N1CCC[C@H]1C(=O)N[C@@H](CO)C(N)=O)C(C)C)[C@@H](C)CC [Compound 100] (H-[NMeY][Aib]EGTFISDYSI[Aib]LDR[Aib]K([AEEA-AEEA-γGlu-γGlu-C18 diacid])Q[Aib]NFVNWLLAQSPSSGAPPPS-NH2)	≥ 60 mg/mL	≥ 15 mg/mL
CC[C@H](C)[C@H](NC(=O)[C@H](Cc1ccccc1)NC(=O)[C@@H](NC(=O)CNC(=O)[C@H](CCC(=O)O)NC(=O)C(C)(C)NC(=O)[C@H](Cc1ccc(O)cc1)NC)[C@@H](C)O)C(=O)N[C@@H](CO)C(=O)N[C@@H](CC(=O)O)C(=O)N[C@@H](Cc1ccc(O)cc1)C(=O)N[C@@H](CO)C(=O)N[C@H](C(=O)NC(C)(C)C(=O)N[C@@H](CC(C)C)C(=O)N[C@@H](CC(=O)O)C(=O)N[C@@H](CCCNC(=N)N)C(=O)NC(C)(C)C(=O)N[C@@H](C)C(=O)N[C@@H](CCC(N)=O)C(=O)NC(C)(C)C(=O)N[C@@H](CCCCNC(=O)COCCOCCNC(=O)COCCOCCNC(=O)CC[C@H](NC(=O)CC[C@H](NC(=O)CCCCCCCCCCCCCCCCCCC(=O)O)C(=O)O)C(=O)O)C(=O)N[C@@H](Cc1ccccc1)C(=O)N[C@H](C(=O)N[C@@H](CC(N)=O)C(=O)N[C@@H](Cc1c[nH]c2ccccc12)C(=O)N[C@@H](CC(C)C)C(=O)N[C@@H](CC(C)C)C(=O)N[C@@H](C)C(=O)N[C@@H](CCC(N)=O)C(=O)N[C@@H](CCCNC(=N)N)C(=O)N1CCC[C@H]1C(=O)N[C@@H](CO)C(=O)N[C@@H](CO)C(=O)NCC(=O)N[C@@H](C)C(=O)N1CCC[C@H]1C(=O)N1CCC[C@H]1C(=O)N1CCC[C@H]1C(=O)N[C@@H](CO)C(N)=O)C(C)C)[C@@H](C)CC [Compound 101] (H-[NMeY][Aib]EGTFISDYSI[Aib]LDR[Aib]AQ[Aib]K([AEEA-AEEA-γGlu-γGlu-C20 diacid])FVNWLLAQRPSSGAPPPS-NH2)	≥ 60 mg/mL	≥ 15 mg/mL
CC[C@H](C)[C@H](NC(=O)[C@H](Cc1ccccc1)NC(=O)[C@@H](NC(=O)CNC(=O)[C@H](CCC(=O)O)NC(=O)C(C)(C)NC(=O)[C@H](Cc1ccc(O)cc1)NC)[C@@H](C)O)C(=O)N[C@@H](CO)C(=O)N[C@@H](CC(=O)O)C(=O)N[C@@H](Cc1ccc(O)cc1)C(=O)N[C@@H](CO)C(=O)N[C@H](C(=O)NC(C)(C)C(=O)N[C@@H](CC(C)C)C(=O)N[C@@H](CC(=O)O)C(=O)N[C@@H](CCCNC(=N)N)C(=O)NC(C)(C)C(=O)N[C@@H](C)C(=O)N[C@@H](C)C(=O)NC(C)(C)C(=O)N[C@@H](CCCCNC(=O)COCCOCCNC(=O)COCCOCCNC(=O)CC[C@H](NC(=O)CC[C@H](NC(=O)CCCCCCCCCCCCCCCCC(=O)O)C(=O)O)C(=O)O)C(=O)N[C@@H](Cc1ccccc1)C(=O)N[C@H](C(=O)N[C@@H](CC(N)=O)C(=O)N[C@@H](Cc1c[nH]c2ccccc12)C(=O)N[C@@H](CC(C)C)C(=O)N[C@@H](CC(C)C)C(=O)N[C@@H](C)C(=O)N[C@@H](CCC(N)=O)C(=O)N[C@@H](CCCNC(=N)N)C(=O)N1CCC[C@H]1C(=O)N[C@@H](CO)C(=O)N[C@@H](CO)C(=O)NCC(=O)N[C@@H](C)C(=O)N1CCC[C@H]1C(=O)N1CCC[C@H]1C(=O)N1CCC[C@H]1C(=O)N[C@@H](CO)C(N)=O)C(C)C)[C@@H](C)CC [Compound 106] (H-[NMeY][Aib]EGTFISDYSI[Aib]LDR[Aib]AA[Aib]K([AEEA-AEEA-γGlu-γGlu-C18 diacid])FVNWLLAQRPSSGAPPPS-NH2)	≥ 30 mg/mL	≥ 15 mg/mL
